Measurements as given in patent EP2588472B1, “RUPATADINE derivative AS AN ANTIHISTAMINIC AGENT” (J. Uriach y Compania S.A., priority 2010, dated 2012).
pIC50: −log10 of the molar value.

Columns and labels:
[1] = stated in background; cited from earlier work
[2] = target: T1, human H1 receptor (Homo sapiens, UniProt P35367); experiment: standard H1 binding assay ([3H]-pyrilamine displacement, scintillation counting); conditions: recombinant HEK-293 derived membranes, [3H]-pyrilamine 1 nM, 22°C, 60 minutes
T1 construct: expressed in transfected cells; host or cells: HEK-293 (membranes)
T1 sequence (P35367 whole entry): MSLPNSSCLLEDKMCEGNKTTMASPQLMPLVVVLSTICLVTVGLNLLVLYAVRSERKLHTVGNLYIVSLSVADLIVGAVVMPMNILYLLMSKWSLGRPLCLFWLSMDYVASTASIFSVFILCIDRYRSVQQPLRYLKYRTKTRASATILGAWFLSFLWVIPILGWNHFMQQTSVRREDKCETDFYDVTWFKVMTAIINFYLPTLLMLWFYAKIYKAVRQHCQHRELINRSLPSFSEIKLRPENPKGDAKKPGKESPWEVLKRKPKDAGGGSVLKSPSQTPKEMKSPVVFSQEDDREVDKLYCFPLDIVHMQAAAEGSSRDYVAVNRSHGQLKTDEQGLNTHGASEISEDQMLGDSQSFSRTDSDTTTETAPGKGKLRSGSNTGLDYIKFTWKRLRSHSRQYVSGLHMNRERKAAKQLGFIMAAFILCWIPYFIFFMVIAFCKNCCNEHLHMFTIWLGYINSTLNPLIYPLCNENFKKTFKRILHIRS
Method: The antiH1 activity of Compound II was assayed using a standard H1 binding assay. The test was performed following a protocol based on Smit et al. (Brit. J. Pharmacol. 1996 117(6), 1071-1080): the binding was performed on recombinant HEK-293 cells expressing the human H1 receptor. The reference compound was [^3H]-pyrilamine at 1 nM. Recombinant HEK-293 derived membranes were incubated at 22°C for 60 minutes with [^3H]-pyrilamine in the presence of different concentrations of compound II. Measurements were carried out using scintillation counting.

[3] = solubility in water; format: physicochemical

| Compound | solubility in water [1] | pIC50 [2] | solubility [3] |
| --- | --- | --- | --- |
| Rupatadine fumarate | 2.9 mg/mL | – | – |
| Cc1cc(CN2CCC(=C3c4ccc(Cl)cc4CCc4cccnc43)CC2)c[n+](C(CC(=O)O)C(=O)[O-])c1 (stereo not drawn) [Compound II] | – | 6.43 | > 50 mg/mL |
